The values below are quoted from earlier work in patent US20260144779A1, “MODIFIED RELEASE PHARMACEUTICAL FORMULATIONS COMPRISING DEFERIPRONE” (CHIESI FARMACEUTICI S.P.A., priority 2022, published 2026).

The conditions of this data set: in vivo.

For the molecule `Cc1c(O)c(=O)ccn1C` [Deferiprone, 3-hydroxy-1,2-dimethylpyridin-4-one], the Half-life is 2 to 3 h.
